The text below walks through data of patent publication US6391305B1, “Conjugates useful in the treatment of prostate cancer” (priority 1999, dated 2002).

Read-outs that look alike come from different tables or passages of the source. Non-standard residues stand in square brackets, D forms with d. Residues, ends and D or L forms follow the SMILES beside them. Primed or numbered codes have the meaning given here. *: point of attachment. Doxorubicin(3'-N) = COc1cccc2c1C(=O)c1c(O)c3c(c(O)c1C2=O)C[C@@](O)(C(=O)CO)C[C@@H]3O[C@H]1C[C@H](N*)[C@H](O)[C@H](C)O1; X5 = (2R,3S)‑2,3,4‑trihydroxybutanoyl, O=C([C@H](O)[C@@H](O)CO)*; X2 = COCCOCCOCCOCCOCCOCCOCCOCCOCCOCCOCCOCCOCCOCCOCCOCCOCC(=O)*; Decanoyl(3,6,9-trioxa) = COCCOCCOCC(=O)*; Glyceroyl(2S) = O=C([C@@H](O)CO)*; Glyceroyl(2R) = O=C([C@H](O)CO)*; X4 = COCCOCCOCCOCCOCCOCCOCC(=O)*; hArg = N=C(N)NCCCC[C@H](N)C(=O)O; 3Pal = N[C@@H](Cc1cccnc1)C(=O)O; Chg = N[C@H](C(=O)O)C1CCCCC1; PEG(15) = PEG(15): -; Glycolyl = O=C(CO)*

Data set [1] concerns LNCap prostate tumor cells. The data set is described as follows: In vitro cytotoxicity, Alamar Blue assay, LNCaP. The following applies: 72 HRS, read-out: LNCaP Cell Kill in 72 HRS, {48 HRS} EC 50. The data set is classed as cell-based. As for the experimental part: (§1) The cytotoxicities of the cleaveable oligopeptide-doxorubicin conjugates, prepared as described in Examples 3-6, against a line of cells which is known to be killed by unmodified doxorubicin was assessed with an Alamar Blue assay. Specifically, cell cultures of LNCap prostate tumor cells or DuPRO cells in 96 well plates was diluted with medium containing various concentrations of a given conjugate (final plate well volume of 200 μl ). The cells were incubated for 3 days at 37° C., 20 μl of Alamar Blue is added to the assay well. The cells were further incubated and the assay plates were read on a EL-310 ELISA reader at the dual wavelengths of 570 and 600 nm at 4 and 7 hours after addition of Alamar Blue. Relative percentage viability at the various concentration of conjugate tested was then calculated versus control (no conjugate) cultures. If no salt is indicated, the free conjugate was tested.

The target in data set [2] is T1, enzymatically active free PSA (Homo sapiens, UniProt P07288).
T1 construct: required for 50% cleavage of the noted oligopeptides with enzymatically active free PSA
The data set is described as follows: Recognition (cleavage) of oligopeptide-doxorubicin conjugates by free PSA, HPLC. The following applies: DOX conjugate; for Time to 50% Substrate Cleavage by York PSA: PSA digestion buffer pH7.4, 140 mM NaCl, molar ratio to PSA 100 to 1. The data set is classed as biochemical. As for the experimental part:
If no salt is indicated for the conjugate, the free conjugate was tested.

The next data set concerns DuPRO cells. The data set is described as follows: In vitro cytotoxicity, Alamar Blue assay, DuPRO. The data set is classed as cell-based. The conditions noted are these: value in parentheses beside the LNCaP value, read-out: DuPRO cell kill EC 50. As to the method: as §1
Background: The colour change of resazurin is a common sign of viable cells or microbes.

Data set [3] concerns the target T1, enzymatically active free PSA. The format is biochemical. The conditions noted are these: oligopeptide; PSA digestion buffer pH8.0; molar ratio to PSA 100 to 1. As to the method:
All other oligopeptides were tested as neutral compounds.

T1 sequence (P07288 25-261): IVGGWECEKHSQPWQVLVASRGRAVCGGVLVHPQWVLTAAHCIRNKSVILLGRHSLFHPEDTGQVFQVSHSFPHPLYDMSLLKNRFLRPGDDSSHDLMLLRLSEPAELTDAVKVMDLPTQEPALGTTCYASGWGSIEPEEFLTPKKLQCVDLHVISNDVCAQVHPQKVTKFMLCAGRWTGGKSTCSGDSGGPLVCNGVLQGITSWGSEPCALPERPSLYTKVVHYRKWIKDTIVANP

`COc1cccc2c1C(=O)c1c(O)c3c(c(O)c1C2=O)C[C@@](O)(C(=O)CO)C[C@@H]3O[C@H]1C[C@H](NC(=O)[C@H](CC(C)C)NC(=O)[C@H](CO)NC(=O)[C@H](CCC(N)=O)NC(=O)[C@@H](NC(=O)[C@H](CO)NC(=O)[C@H](C)NC(=O)[C@H](CCCCNC(=N)N)NC(=O)CO)C2CCCCC2)[C@H](O)[C@H](C)O1` [2-hydroxyacetyl-HomoRASChgQ-SL-DOX (3′), 2-hydroxyacetyl-hArgAlaSerChgGln-SerLeu-DOX (3′)] (Glycolyl-[hArg]AS[Chg]QSL-{Doxorubicin(3'-N)}): the EC50 in data set [1] amounted to 7.9 µM.
Consider `COc1cccc2c1C(=O)c1c(O)c3c(c(O)c1C2=O)C[C@@](O)(C(=O)CO)C[C@@H]3O[C@H]1C[C@H](NC(=O)[C@H](CC(C)C)NC(=O)[C@H](CO)NC(=O)[C@H](CO)NC(=O)[C@H](CO)NC(=O)[C@H](CCC(N)=O)NC(=O)[C@H](Cc2ccc(O)cc2)NC(=O)[C@H](CO)NC(=O)CO)[C@H](O)[C@H](C)O1` [2-hydroxyacetyl-SYQ-SSSL-DOX (3′), 2-hydroxyacetyl-SerTyrGln-SerSerSerLeu-DOX (3′)] (Glycolyl-SYQSSSL-{Doxorubicin(3'-N)}), for which, in data set [1], the EC50 was 18.8 µM.
Regarding `COCCOCCOCC(=O)N[C@@H](CCCCNC(=N)N)C(=O)N[C@@H](Cc1ccc(O)cc1)C(=O)N[C@@H](CCC(N)=O)C(=O)N[C@@H](CO)C(=O)N[C@@H](CO)C(=O)N[C@@H](CO)C(=O)N[C@@H](CC(C)C)C(=O)N[C@H]1C[C@H](O[C@H]2C[C@](O)(C(=O)CO)Cc3c(O)c4c(c(O)c32)C(=O)c2c(OC)cccc2C4=O)O[C@@H](C)[C@H]1O` [PEG(2)-HomoRYQ-SSSL-DOX (3′), PEG(2)-hArgTyrGln-SerSerSerLeu-DOX (3′)] ({Decanoyl(3,6,9-trioxa)}-[hArg]YQSSSL-{Doxorubicin(3'-N)}), the EC50 in data set [1] was determined as 14 µM. In data set [2] (4 hours), the “Substrate cleavage by York PSA at 4 HOUR” value is reported as 40%.
`COc1cccc2c1C(=O)c1c(O)c3c(c(O)c1C2=O)C[C@@](O)(C(=O)CO)C[C@@H]3O[C@H]1C[C@H](NC(=O)[C@H](CC(C)C)NC(=O)[C@H](CO)NC(=O)[C@H](CCC(N)=O)NC(=O)[C@@H](NC(=O)[C@H](CO)NC(=O)[C@H](CO)NC(=O)[C@H](CCCCNC(=N)N)NC(=O)CO)C2CCCCC2)[C@H](O)[C@H](C)O1` [2-hydroxyacetyl-HomoRSSChgQ-SL-DOX (3′), 2-hydroxyacetyl-hArgSerSerChgGln-SerLeu-DOX (3′)] (Glycolyl-[hArg]SS[Chg]QSL-{Doxorubicin(3'-N)}): the EC50 with DuPRO cells is over 100 µM; in data set [1] it was 5.5 µM.
Turning to `COc1cccc2c1C(=O)c1c(O)c3c(c(O)c1C2=O)C[C@@](O)(C(=O)CO)C[C@@H]3O[C@H]1C[C@H](NC(=O)[C@H](CC(C)C)NC(=O)[C@H](CO)NC(=O)[C@H](CCC(N)=O)NC(=O)[C@@H](NC(=O)[C@H](CO)NC(=O)[C@H](CO)NC(=O)[C@H](Cc2cccnc2)NC(=O)[C@H](O)CO)C2CCCCC2)[C@H](O)[C@H](C)O1` [(d)(2,3-dihydroxypropionyl)-3PAL-SerSerChgGln-SerLeu-DOX (3′)] ({Glyceroyl(2R)}-[3Pal]SS[Chg]QSL-{Doxorubicin(3'-N)}), the EC50 in data set [1] was determined as 5.5 µM. Also, the “Time to 50% Substrate Cleavage by York PSA” value in data set [2] was 12 min.
For `COCCOCCOCC(=O)N[C@@H](C)C(=O)N[C@@H](CO)C(=O)N[C@H](C(=O)N[C@@H](CCC(N)=O)C(=O)N[C@@H](CO)C(=O)N[C@@H](CC(C)C)C(=O)N[C@H]1C[C@H](O[C@H]2C[C@](O)(C(=O)CO)Cc3c(O)c4c(c(O)c32)C(=O)c2c(OC)cccc2C4=O)O[C@@H](C)[C@H]1O)C1CCCCC1` [PEG(2)-ASChgQ-SL-DOX (3′), PEG(2)-AlaSerChgGln-SerLeu-DOX (3′)] ({Decanoyl(3,6,9-trioxa)}-AS[Chg]QSL-{Doxorubicin(3'-N)}), in that order: 5.6 µM and 45 min.
Consider `COCCOCCOCC(=O)N[C@@H](CCCCN)C(=O)N[C@@H](Cc1ccc(O)cc1)C(=O)N[C@@H](CCC(N)=O)C(=O)N[C@@H](CO)C(=O)N[C@@H](CO)C(=O)N[C@@H](CO)C(=O)N[C@@H](CC(C)C)C(=O)N[C@H]1C[C@H](O[C@H]2C[C@](O)(C(=O)CO)Cc3c(O)c4c(c(O)c32)C(=O)c2c(OC)cccc2C4=O)O[C@@H](C)[C@H]1O` [PEG(2)-KYQ-SSSL-DOX (3′), PEG(2)-LysTyrGln-SerSerSerLeu-DOX (3′)] ({Decanoyl(3,6,9-trioxa)}-KYQSSSL-{Doxorubicin(3'-N)}), for which the EC50 in data set [1] came to 12.8 µM.
Consider `COCCOCCOCCOCCOCCOCCOCCOCCOCCOCCOCCOCCOCCOCCOCCOCCOCC(=O)N[C@@H](CO)C(=O)N[C@@H](CCCCNC(=N)N)C(=O)N[C@@H](Cc1ccc(O)cc1)C(=O)N[C@@H](CCC(N)=O)C(=O)N[C@@H](CO)C(=O)N[C@@H](CC(C)C)C(=O)N[C@H]1C[C@H](O[C@H]2C[C@](O)(C(=O)CO)Cc3c(O)c4c(c(O)c32)C(=O)c2c(OC)cccc2C4=O)O[C@@H](C)[C@H]1O` [PEG(16)-SHomoRYQ-SL-DOX (3′), PEG(16)-SerhArgTyrGln-SerLeu-DOX (3′)] (X2-S[hArg]YQSL-{Doxorubicin(3'-N)}), for which the EC50 in data set [1] is 45 µM. For the same molecule, the “Time to 50% Substrate Cleavage by York PSA” value in data set [2] was 65 min.
For `COc1cccc2c1C(=O)c1c(O)c3c(c(O)c1C2=O)C[C@@](O)(C(=O)CO)C[C@@H]3O[C@H]1C[C@H](NC(=O)[C@H](CC(C)C)NC(=O)[C@H](CO)NC(=O)[C@H](CCC(N)=O)NC(=O)[C@H](Cc2ccc(O)cc2)NC(=O)[C@H](CO)NC(=O)[C@H](CO)NC(=O)[C@H](CCCCNC(=N)N)NC(=O)CO)[C@H](O)[C@H](C)O1` [2-hydroxyacetyl-HomoRSSYQ-SL-DOX (3′), 2-hydroxyacetyl-hArgSerSerTyrGln-SerLeu-DOX (3′)] (Glycolyl-[hArg]SSYQSL-{Doxorubicin(3'-N)}), the EC50 in data set [1] is 13.6 µM. For the same molecule, the “Time to 50% Substrate Cleavage by York PSA” value in data set [2] is 16 min.
Consider `COCCOCCOCC(=O)N[C@@H](CO)C(=O)N[C@@H](CCCCNC(=N)N)C(=O)N[C@@H](Cc1ccc(O)cc1)C(=O)N[C@@H](CCC(N)=O)C(=O)N[C@@H](CO)C(=O)N[C@@H](CC(C)C)C(=O)N[C@H]1C[C@H](O[C@H]2C[C@](O)(C(=O)CO)Cc3c(O)c4c(c(O)c32)C(=O)c2c(OC)cccc2C4=O)O[C@@H](C)[C@H]1O` [PEG(2)-SHomoRYQ-SL-DOX (3′), PEG(2)-SerhArgTyrGln-SerLeu-DOX (3′)] ({Decanoyl(3,6,9-trioxa)}-S[hArg]YQSL-{Doxorubicin(3'-N)}), for which the EC50 in data set [1] (listed as PEG(2)-ShRYQ-SL-DOX(3′)) amounted to 34 µM. Further, the “Time to 50% Substrate Cleavage by York PSA” value in data set [2] stood at 60 min.
With “PEG(2)-SerSerSerChgGln-Ser(dLeu)-DOX (3′) ({Decanoyl(3,6,9-trioxa)}-SSS[Chg]QS[dL]-{Doxorubicin(3'-N)}; also: DOX attached at 3′) [PEG(2)-SSSChgQ-S(dL)-DOX (3′)]”, in data set [2] (3 hours), the “Substrate cleavage by York PSA at 3 HOUR” value is listed as 46%.
Turning to “PEG(2)SSSChgQ-SL-acid: blocked oligopeptide with PSA cleavage site, Example 1 ({Decanoyl(3,6,9-trioxa)}-SSS[Chg]QSL-OH)”, the “Time to 50% Substrate Cleavage by York PSA” value in data set [3] was 150 min.
Still for that read-out and setting: as for “PEG(2)-3PAL-SSChgQ-SL-acid: blocked oligopeptide with PSA cleavage site, Example 1 ({Decanoyl(3,6,9-trioxa)}-[3Pal]SS[Chg]QSL-OH; SMILES COCCOCCOCC(=O)N[C@@H](Cc1cccnc1)C(=O)N[C@@H](CO)C(=O)N[C@@H](CO)C(=O)N[C@H](C(=O)N[C@@H](CCC(N)=O)C(=O)N[C@@H](CO)C(=O)N[C@@H](CC(C)C)C(=O)O)C1CCCCC1)”, the figure is 80 min.
`COCCOCCOCCOCCOCCOCCOCC(=O)N[C@@H](C)C(=O)N[C@@H](CO)C(=O)N[C@H](C(=O)N[C@@H](CCC(N)=O)C(=O)N[C@@H](CO)C(=O)N[C@@H](CC(C)C)C(=O)N[C@H]1C[C@H](O[C@H]2C[C@](O)(C(=O)CO)Cc3c(O)c4c(c(O)c32)C(=O)c2c(OC)cccc2C4=O)O[C@@H](C)[C@H]1O)C1CCCCC1` [PEG(6)-ASChgQ-SL-DOX (3′), PEG(6)-AlaSerChgGln-SerLeu-DOX (3′)] (X4-AS[Chg]QSL-{Doxorubicin(3'-N)}): the EC50 in data set [1] turned out to be 12 µM. The “Time to 50% Substrate Cleavage by York PSA” value in data set [2] was determined as 160 min.
As for “PEG(15)-ShRYQ-SL-acid: blocked oligopeptide with PSA cleavage site, Example 1 ({PEG(15)}-S[hArg]YQSL-OH)”, in data set [3], the “Time to 50% Substrate Cleavage by York PSA” value stood at 40 min.
As to “(l)2,3-dihydroxypropionyl-SSChgQ-SL-acid: blocked oligopeptide with PSA cleavage site, Example 1 ({Glyceroyl(2S)}-SS[Chg]QSL-OH)”, in data set [3], the “Time to 50% Substrate Cleavage by York PSA” value is 180 min.
On the same count and under the same terms, as for “(2R,3S) 2,3,4-trihydroxybutanoyl-ShRChgQ-SL-acid: blocked oligopeptide with PSA cleavage site, Example 1 (X5-S[hArg][Chg]QSL-OH)”, the figure is 90 min.
